Laboratory results published in paper PMC4754331, “Programming of metabolic effects in C57BL/6JxFVB mice by in utero and lactational exposure to perfluorooctanoic acid” (Archives of Toxicology, 2015).
Like-named read-outs stand apart in the source and are kept apart here.

What was measured:
C57BL/6JxFVB hybrid mice [1] = experiment: Offspring body weight and growth after perinatal exposure; type: in vivo; parameters: key to Time of effect: P: permanent effect on body weight throughout study; D: delayed (late onset) of effect; T: transient effect; E: effect observed during treatment; conditions: for Emax: Mus musculus
Description: PFOA was obtained as sodium perfluoro-n-octanoate (PFOA-Na; CAS No. 335-95-5, purity >99 %) and kindly provided by Wellington Laboratories Inc., Ontario, Canada. PFOA-Na was dissolved in acetone and mixed with the diet (NIH-07, Research Diet Services, Wijk bij Duurstede, The Netherlands). Thereafter, acetone was allowed to evaporate, and this master mixture was serially diluted with a factor 3–3.3 by adding NIH-07, and afterward, the diet was pelleted. In this way, seven diet groups and a control NIH-07 (blank acetone was added) were obtained, aiming at concentrations of 0, 0.017, 0.056, 0.17, 0.56, 1.7, 5.6 and 17 mg/kg PFOA in feed, which corresponded to 0, 3, 10, 30, 100, 300, 1000 and 3000 µg/kg bw based on an average food consumption of 4.5 g per mouse (average body weight of 25 g) per day. PFOA concentrations in test diets were confirmed by isotope dilution liquid chromatography mass spectrometry after extraction with methanol (8402, JT Baker, Deventer the Netherlands) and a cleanup with carbon solid phase extraction (ENVI Carb, 57210-U, Supelco, Zwijndrecht, the Netherlands). Actual PFOA concentrations in the food were 15–30 % lower than the nominal values. The non-purified soy-based NIH-07 was chosen because it was originally designed to optimize gestation, lactation and growth of rodents, and avoiding natural phytoestrogens in the diet may have confounding effects (Ruhlen et al. [2008]). Estrogenic and anti-estrogenic activity for this diet was previously analyzed to be low and absent, respectively (van Esterik et al. [2014]).
A high fat diet (D12451, Research Diet Services, Wijk bij Duurstede, The Netherlands), containing 45 kcal % fat (lard) compared with 15 kcal % fat in the NIH-07 diet, was given to all F1 mice during the final weeks of the study (21–28 weeks of age).
After an acclimatization period of 1 week, female F0 mice were fed experimental diets explained above starting 2 weeks before mating and continued during mating (1 week), gestation (3 weeks) and lactation (3 weeks). Each dose group had six F0 females, which were mated three by three with two F0 males for each dose group. […] For every dose group, on average 9 mice per sex (range 6–10) were included for follow-up through juvenile and adult stages, selecting pups proportionally from available litters. F1 males were single-housed, and F1 females were housed in pairs from the same litter in standard Macrolon type I cages. Body weight was measured at postnatal day (PND) 4, 7, 14 and 21 and weekly from 5 weeks of age continuing until the end of the study. Food consumption could not be recorded reliably due to high spillage.
Growth was calculated by dividing body weight of subsequent weeks by body weight at week 5, i.e., at the start of the F1 follow-up.

C57BL/6JxFVB hybrid mice [2] = experiment: White adipose tissue adipocyte size and number (perirenal fat pad); type: in vivo; conditions: for White adipose tissue cell number: data not shown; for White adipose tissue adipocyte cell size: perirenal fat pad, 300 and 3000 combined
Description: Some measurements included only control and one or two dose groups and could therefore not be analyzed as dose–responses. GTT was therefore evaluated by repeated-measures or nested (to account for litter covariance) two-way ANOVAs (Graphpad Prism 5.0, R) to detect differences at the different time points and between the areas under the curve (AUC). Activity measurement, ucp1 expression, WAT adipocyte size and the proxy for cell number were also tested with a nested ANOVA (R). Differences in distribution of BAT histopathology scores between experimental groups were tested for statistical significance in a two-tailed Fisher’s exact test.

[3] = tested on: mice (CD-1, NMRI, Balb/c, C57BL/6); parameters: key to Time of effect: P: permanent effect on body weight throughout study; D: delayed (late onset) of effect; T: transient effect; E: effect observed during treatment; conditions: cited from earlier work
[4] = C57BL/6JxFVB, 3-10-30-100-300-1000-3000 µg/kg bw/d, diet, 2w pre-mating-PND21, this study
[5] = F1 females, CES 5 %, high fat diet
[6] = Balb/c and C57BL/6, 1000-5000-10,000 µg/kg bw/d, oral gavage PND21-49 (5d/w), ref Yang et al. ([2009])
[7] = Balb/c, C57BL/6, 2500 (Balb), 7500 (BL6) µg/kg bw/d, oral gavage PND21-49 (5d/w), ref Zhao et al. ([2012])
[8] = CD-1, 5000 µg/kg bw/d, oral gavage GD1-17, GD8-17, GD12-17, ref White et al. ([2007])
[9] = CD-1, 10-100-1000 µg/kg bw/d, oral gavage GD10-17, ref Macon et al. ([2011])
[10] = CD-1, 10-100-1000 µg/kg bw/d, oral gavage PND18-20, ref Dixon et al. ([2012])
[11] = CD-1, 10–5000 µg/kg bw/d, oral gavage GD1-17, ref Hines et al. ([2009])
[12] = CD-1, 300-1000-3000 µg/kg bw/d, oral gavage GD1-17, ref Macon et al. ([2011])
[13] = CD-1, 1000, 3000, 5000, 10,000, 20,000, 40,000 µg/kg bw/d, oral gavage GD1-17, ref Lau et al. ([2006])
[14] = CD-1, 1000, 5000, 0/1000 + 5 ng/mL via drinking water, GD1-17, ref White et al. ([2011b])
[15] = CD-1, 1000–40,000 µg/kg bw/d, oral gavage GD1-17, ref Lau et al. ([2006])
[16] = CD-1, 3000, 5000 µg/kg bw/d, oral gavage GD1-17, ref White et al. ([2009])
[17] = CD-1, dose 3 [sic], 5 µg/kg bw/d, oral gavage GD1-17, ref Wolf et al. ([2007])
[18] = NMRI, 580-8,700 µg/kg bw/d, oral gavage PND10, ref Johansson et al. ([2008])

O=C(O)C(F)(F)C(F)(F)C(F)(F)C(F)(F)C(F)(F)C(F)(F)C(F)(F)F [PFOA, Perfluorooctanoic acid]
Endpoint bw (age) F (C57BL/6JxFVB hybrid mice [1]; [4]): ↓ PND4–w27 | Endpoint bw (age) M (C57BL/6JxFVB hybrid mice [1]; [4]): ↓ PND4–w23 | Time of effect (C57BL/6JxFVB hybrid mice [1]; C57BL/6JxFVB, this study, in males not observed during final 2 weeks (w24–25) under high fat diet): P^d | Body weight week 21: BMDL (C57BL/6JxFVB hybrid mice [1]; F1 females, CES 5 %): 1239 µg/kg bw/d | Body weight week 21: BMDU (C57BL/6JxFVB hybrid mice [1]; F1 females, CES 5 %): 3595 µg/kg bw/d | Body weight week 27: BMDL (C57BL/6JxFVB hybrid mice [1]; [5]): 849 µg/kg bw/d | Body weight week 27: BMDU (C57BL/6JxFVB hybrid mice [1]; [5]): 5645 µg/kg bw/d | Body weight week 21: BMDL (C57BL/6JxFVB hybrid mice [1]; F1 males, CES 5 %): 1024 µg/kg bw/d | Body weight week 21: BMDU (C57BL/6JxFVB hybrid mice [1]; F1 males, CES 5 %): 3457 µg/kg bw/d | Growth week 25/5: BMDL (C57BL/6JxFVB hybrid mice [1]; F1 males, CES 5 %): 948 µg/kg bw/d | Growth week 25/5: BMDU (C57BL/6JxFVB hybrid mice [1]; F1 males, CES 5 %): 2383 µg/kg bw/d | Emax (C57BL/6JxFVB hybrid mice [1]; F1 females, read-out: Body weight week 21: max effect size): -8% | Emax (C57BL/6JxFVB hybrid mice [1]; F1 females, read-out: Body weight week 27: max effect size): -9.1% | Emax (C57BL/6JxFVB hybrid mice [1]; F1 females, read-out: Growth week 27/5: max effect size): -8.6% | Emax (C57BL/6JxFVB hybrid mice [1]; F1 males, read-out: Body weight week 21: max effect size): -9.1% | Emax (C57BL/6JxFVB hybrid mice [1]; F1 males, read-out: Growth week 25/5: max effect size): 11% | Body weight PND4: CED (C57BL/6JxFVB hybrid mice [1]; females, CES −0.05, Fig. 2c): 0.0628 µg/kg body weight/day | Body weight PND4: CEDLbt (C57BL/6JxFVB hybrid mice [1]; females, CES −0.05, Fig. 2c): 2.004e−08 µg/kg body weight/day | Body weight PND4: CEDUbt (C57BL/6JxFVB hybrid mice [1]; females, CES −0.05, Fig. 2c): 42.23 µg/kg body weight/day | Body weight week 27: CED (C57BL/6JxFVB hybrid mice [1]; females, CES −0.05, Fig. 2d): 1560 µg/kg body weight/day | Body weight week 27: CEDLbt (C57BL/6JxFVB hybrid mice [1]; females, CES −0.05, Fig. 2d): 849.1 µg/kg body weight/day | Body weight week 27: CEDUbt (C57BL/6JxFVB hybrid mice [1]; females, CES −0.05, Fig. 2d): 5645 µg/kg body weight/day | Body weight from PND4 until adulthood (week 21) (C57BL/6JxFVB hybrid mice [1]; females, standard diet): dose-dependently decreased | Body weight at PND4 (C57BL/6JxFVB hybrid mice [1]; males): dose-dependent decrease | Body weight PND4: CEDLbt (C57BL/6JxFVB hybrid mice [1]; males, CES −0.05, Fig. 2a): 1e−12 µg/kg body weight/day | Body weight PND4: CEDUbt (C57BL/6JxFVB hybrid mice [1]; males, CES −0.05, Fig. 2a): 42.23 µg/kg body weight/day | Body weight PND4: CED (C57BL/6JxFVB hybrid mice [1]; males, CES −0.05, Fig. 2a, unit from legend): 0.0039 µg/kg body weight/day | Body weight in weeks 22 and 23 (C57BL/6JxFVB hybrid mice [1]; males, high fat diet, data not shown): dose-dependent decrease | White adipose tissue cell number (C57BL/6JxFVB hybrid mice [2]; females): did not differ | White adipose tissue adipocyte cell size (C57BL/6JxFVB hybrid mice [2]; females, p < 0.05): significantly decreased | White adipose tissue cell number (C57BL/6JxFVB hybrid mice [2]; males): no differences | White adipose tissue adipocyte cell size (C57BL/6JxFVB hybrid mice [2]; males): no differences | Endpoint bw (age) F [3, 6]: ↓ PND45-46 | Other relevant effects of PFOA [3, 6]: PND49: delayed vaginal opening; ↑ abs/rel liver weight; inhibition mammary gland/uterine development | Time of effect [3, 6]: E | Endpoint bw (age) F [3, 7]: ↓ PND42-49 (BL6) | Other relevant effects of PFOA [3, 7]: delayed/absent vaginal opening; lack of estrous cycling; ↓ovarian steroid hormonal synthetic enzyme levels | Time of effect [3, 7]: E | Other relevant effects of PFOA ([3]; C57BL/6/Bkl, 300 µg/kg bw/d, diet GD1-PND0, ref Onishchenko et al. ([2011])): M + F: changes in exploratory behavior; M: ↑ activity | Other relevant effects of PFOA ([3]; C57BL/6, 5000 µg/kg bw/d, oral gavage PND21-49 (5d/w), ref Zhao et al. ([2010])): ↑ serum progesterone; ↑ mammary gland response to estrogen and/or progesterone | Time of effect ([3]; CD-1, 5000 µg/kg bw/d, oral gavage GD1-17, GD8-17, GD12-17, no follow-up of animals, ref White et al. ([2007])): P^c | Endpoint bw (age) F [3, 8]: ↓ PND1-20 | Endpoint bw (age) M [3, 8]: ↓ PND1-20 | Other relevant effects of PFOA [3, 8]: altered mammary gland development in dams + female pups | Endpoint bw (age) F [3, 9]: – PND1-21 | Endpoint bw (age) M [3, 9]: – PND1-21 | Other relevant effects of PFOA [3, 9]: M + F: hepatomegaly; F: mammary gland developmental abnormalities | Endpoint bw (age) F [3, 10]: – PND21 | Other relevant effects of PFOA [3, 10]: PND21: ↑ abs/rel uterine weight (lowest dose) | Endpoint bw (age) F ([3]; CD-1, 10, 100, 300, 1000, 3000, 5000 µg/kg bw/d, oral gavage GD1-17, ref Hines et al. ([2009])): ↓ PND1,21 (high doses); ↑ 20-40w (low doses) | Other relevant effects of PFOA [3, 11]: 21–33w: ↑ insulin; ↑ leptin (low doses); 18 m, weights abs/rel: ↓ abdominal white fat (high doses); ↑ interscapular fat (high doses); – liver | Time of effect [3, 11]: D T | Endpoint bw (age) F [3, 12]: – PND7-85 | Endpoint bw (age) M [3, 12]: – PND7-85 | Other relevant effects of PFOA [3, 12]: M + F: delayed mammary gland development | Endpoint bw (age) F [3, 13]: ↓ PND1-25; – 6.5w-60w | Endpoint bw (age) M [3, 13]: ↓ PND1-25; – 6.5w-60w | Other relevant effects of PFOA [3, 14]: delay in mammary gland development and/or lactational differentiation (P0, F1, F2) | Time of effect [3, 14]: T | Endpoint bw (age) F ([3]; CD-1, 1000, 5000, 0/1000 + 5 ng/mL via drinking water, oral gavage GD1-17, GD1-end of study (5 ng/mL groups), ref White et al. ([2011b])): ↓ PND42 (F1); ↑ PND14-22 (F2) | Other relevant effects of PFOA [3, 15]: M: earlier preputial separation | Time of effect [3, 15]: T | Endpoint bw (age) F [3, 16]: ↓ PND21-85 | Other relevant effects of PFOA [3, 16]: weaning age: abnormal (delay) mammary gland development; ↑ rel liver weight | Time of effect [3, 16]: T | Endpoint bw (age) M ([3]; CD-1, 3000, 5000 µg/kg bw/d, oral gavage GD1-17, ref Wolf et al. ([2007])): ↓ PND1-22; ↑ PND85 - 35w (dose 3000) | Endpoint bw (age) F [3, 17]: ↓ PND1-22 | Other relevant effects of PFOA [3, 17]: M + F, PND22: ↑ abs/rel liver weight | Time of effect [3, 17]: T; D (dose 3000) | Endpoint bw (age) M [3, 18]: – PND10 + 28 | Other relevant effects of PFOA [3, 18]: 8/16w: neurotoxicity | Most sensitive developmental BMDL ([3]; ref Lau et al. [2006]): 616 µg/kg bw/d
